This passage reports IC50 results from patent publication US20240376056A1, “PHENYL ACETAMIDE BASED IL-17A MODULATORS AND USES THEREOF” (DiCE Alpha, Inc., priority 2021, published 2024).

Each structure is given as a SMILES string. Where a name gives a salt, the structure may show the parent alone.

The target of the experiment is T1, IL-17A/A (Homo sapiens, UniProt Q16552).
T1 construct: purchased Genscript Z03228
T1 sequence (Q16552 24-155): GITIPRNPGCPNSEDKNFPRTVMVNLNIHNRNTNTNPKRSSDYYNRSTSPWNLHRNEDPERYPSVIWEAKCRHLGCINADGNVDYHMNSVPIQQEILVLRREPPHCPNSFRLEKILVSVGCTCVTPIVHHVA
In words: HEK-Blue IL-17A/A inhibition assay (SEAP reporter). Format: cell-based. As to conditions: HEK-Blue cells (HEK 293 expressing IL-17RA, IL-17RC, Act1); IL-17A/A stimulation; 20 hours; SEAP read at A630; 4-parameter fit. A digest of the protocol: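 IC50 from a 4-parameter fit of SEAP signal (Quanti-Blue, A630) after 20 h co-incubation of compound and IL-17A/A. Reporter line: HEK 293 expressing IL-17RA, IL-17RC and Act1 with NFκB-SEAP; compound top final 10, 1 or 0.3 uM, DMSO 0.1% final.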
Turning to `CC(C)n1nccc1C(=O)N[C@H](C(=O)Nc1ccc([C@H](C)C(=O)N2CCC(N)C2)cc1F)C(C1CC1)C1CC1` (stereo partly drawn) [Compound 132, N-((2S)-1-((4-((2S)-1-(3-aminopyrrolidin-1-yl)-1-oxopropan-2-yl)-2-fluorophenyl)amino)-3,3-dicyclopropyl-1-oxopropan-2-yl)-1-isopropyl-1H-pyrazole-5-carboxamide], the IC50 is above 1000 nM.

In the case of `CC1CN(C(=O)[C@@H](C)c2ccc(NC(=O)[C@@H](NC(=O)c3ccnn3C(C)C)C(C3CC3)C3CC3)c(F)c2)C(C(F)(F)F)CO1` (stereo partly drawn) [Compound 135, N-((2S)-1,1-dicyclopropyl-3-((2-fluoro-4-((2S)-1-(2-methyl-5-(trifluoromethyl)morpholino)-1-oxopropan-2-yl)phenyl)amino)-3-oxopropan-2-yl)-1-isopropyl-1H-pyrazole-5-carboxamide], the IC50 lay within 100 to 1000 nM. Take `CC(=O)NC1CCN(C(=O)[C@@H](C)c2ccc(NC(=O)[C@@H](NC(=O)c3ccnn3C(C)C)C(C3CC3)C3CC3)c(F)c2)C1` (stereo partly drawn) [Compound 136, N-((2S)-1-((4-((2S)-1-(3-acetamidopyrrolidin-1-yl)-1-oxopropan-2-yl)-2-fluorophenyl)amino)-3,3-dicyclopropyl-1-oxopropan-2-yl)-1-isopropyl-1H-pyrazole-5-carboxamide]: the IC50 is above 1000 nM. With `CC(C)n1nccc1C(=O)N[C@H](C(=O)Nc1ccc([C@H](C)C(=O)N(CCN)CC(F)(F)F)cc1F)C(C1CC1)C1CC1` [Compound 139, N-((S)-1-((4-((S)-1-((2-aminoethyl)(2,2,2-trifluoroethyl)amino)-1-oxopropan-2-yl)-2-fluorophenyl)amino)-3,3-dicyclopropyl-1-oxopropan-2-yl)-1-isopropyl-1H-pyrazole-5-carboxamide] the figure was 100 to 1000 nM.

For `CC(C)n1nccc1C(=O)N[C@H](C(=O)Nc1ccc([C@H](C)C(=O)N(CC(F)(F)F)C2CCOC2)cc1F)C(C1CC1)C1CC1` (stereo partly drawn) [Compound 153], the IC50 was in the range of 100 to 1000 nM. With `CC(C)n1nccc1C(=O)N[C@H](C(=O)Nc1ccc([C@H](C)C(=O)NC(CNC(=O)OC(C)(C)C)C(F)(F)F)cc1F)C(C1CC1)C1CC1` (stereo partly drawn) [Compound 154] the figure was 100 to 1000 nM; with `CC(C)n1nccc1C(=O)N[C@H](C(=O)Nc1ccc([C@H](C)C(=O)N[C@H](CO)C2CCC2)cc1F)C(C1CC1)C1CC1` [Compound 155], above 1000 nM; with `CC(C)n1nccc1C(=O)N[C@H](C(=O)Nc1ccc([C@H](C)C(=O)N[C@@H](CO)C2CCC2)cc1F)C(C1CC1)C1CC1` [Compound 156], 100 to 1000 nM. Turning to `CC(C)n1nccc1C(=O)N[C@H](C(=O)Nc1ccc([C@H](C)C(=O)NC(CN)C(F)(F)F)cc1F)C(C1CC1)C1CC1` (stereo partly drawn) [Compound 157, N-((2S)-1-((4-((2S)-1-((3-amino-1,1,1-trifluoropropan-2-yl)amino)-1-oxopropan-2-yl)-2-fluorophenyl)amino)-3.3-dicyclopropyl-1-oxopropan-2-yl)-1-isopropyl-1H-pyrazole-5-carboxamide hydrochloride], the IC50 fell in the range of 100 to 1000 nM. With `CC(C(=O)NCC(F)(F)F)c1cc(F)c(NC(=O)[C@@H](NC(=O)c2ccnn2C(C)C)C(C2CC2)C2CC2)cc1N1CCCC1` (stereo partly drawn) [Compound 160, N-((2S)-1,1-dicyclopropyl-3-((2-fluoro-4-(1-oxo-1-((2,2,2-trifluoroethyl)amino)propan-2-yl)-5-(pyrrolidin-1-yl)phenyl)ammno)-3-oxopropan-2-yl)-1-isopropyl-1H-pyrazole-5-carboxamide] the figure was below 100 nM. For `CC(C)n1nccc1C(=O)N[C@H](C(=O)Nc1cc(CN(C)C)c([C@H](C)C(=O)NCC(F)(F)F)cc1F)C(C1CC1)C1CC1` [Compound 165, N-((S)-1,1-dicyclopropyl-3-((5-((dimethylamino)methyl)-2-fluoro-4-((S)-1-oxo-1-((2,2,2-trifluoroethyl)amino)propan-2-yl)phenyl)amino)-3-oxopropan-2-yl)-1-isopropyl-1H-pyrazole-5-carboxamide], the IC50 was in the range of 100 to 1000 nM.

For the molecule `CC(C)n1nccc1C(=O)N[C@H](C(=O)Nc1cc(CCN(C)C)c([C@H](C)C(=O)NCC(F)(F)F)cc1F)C(C1CC1)C1CC1` [Compound 166, N-((S)-1,1-dicyclopropyl-3-((5-(2-(dimethylamino)ethyl)-2-fluoro-4-((S)-1-oxo-1-((2,2,2-trifluoroethyl)amino)propan-2-yl)phenyl)amino)-3-oxopropan-2-yl)-1-isopropyl-1H-pyrazole-5-carboxamide], the IC50 lay in the range of 100 to 1000 nM. On to `CC(C)n1nccc1C(=O)N[C@H](C(=O)Nc1ccc(C(CO)C(=O)NCC(F)(F)F)cc1F)C(C1CC1)C1CC1` (stereo partly drawn) [Compound 168, N-((2S)-1.1-dicyclopropyl-3-((2-fluoro-4-(3-hydroay-1-oxo-11-((2,2,2-trifluoroethyl)amino)propan-2-yl)phenyl)amino)-3-oxopropan-2-yl)-1-isopropyl-1H-pyrazole-5-carboxamide], for which the IC50 was 100 to 1000 nM. With `CC(C(=O)NCC(F)(F)F)c1cc(F)c(NC(=O)[C@@H](NC(=O)c2ccnn2C(C)C)C(C2CC2)C2CC2)cc1C(F)(F)F` (stereo partly drawn) [Compound 169] the figure was below 100 nM; with `CCn1nccc1C(=O)N[C@H](C(=O)Nc1cc(OC)c(C(C)C(=O)N(C)CC(F)(F)F)cc1F)C(C1CC1)C1CC1` (stereo partly drawn) [Compound 174], below 100 nM.

Regarding `CCC(c1ccc(F)cc1)[C@H](NC(=O)c1ccnn1C(C)C)C(=O)Nc1cc(OC)c(C(C)C(=O)NCC(F)(F)F)cc1F` (stereo partly drawn) [Compound 175], the IC50 lay within 100 to 1000 nM. `COc1cc(NC(=O)[C@@H](NC(=O)c2ccnn2C(C)C)C(C2CC2)C2CC2)c(F)cc1C(C)C(=O)N(C)CC(F)(F)F` (stereo partly drawn) [Compound 176]: the IC50 was below 100 nM. The result for `CC[C@@H](c1ccc(F)cc1)[C@H](NC(=O)c1ccnn1C(C)C)C(=O)Nc1cc(OC)c(C(C)C(=O)NCC(F)(F)F)cc1F` (stereo partly drawn) [Compound 177] reads 100 to 1000 nM. Take `Cc1cc(NC(=O)[C@@H](NC(=O)c2ccnn2C(C)C)C(C2CC2)C2CC2)c(F)cc1C(C)C(=O)NC(C(N)=O)C(F)(F)F` (stereo partly drawn) [Compound 178]: the IC50 was in the range of 100 to 1000 nM. With `COc1cc(NC(=O)[C@@H](NC(=O)c2ccnn2C)C(C2CC2)C2CC2)c(F)cc1C(C)C(=O)N(C)CC(F)(F)F` (stereo partly drawn) [Compound 179] the figure was below 100 nM. With `Cc1cc(NC(=O)C(NC(=O)c2ccnn2C(C)C)C(C2CC2)C2CC2)c(F)cc1C(C)C(=O)N1CC(C)OCC1C(F)(F)F` (stereo not drawn) [Compound 184] the figure was below 100 nM. The result for `CC(C(=O)NCC(F)(F)F)c1cc(F)c(NC(=O)[C@@H](NC(=O)c2ccnn2C(C)C)C(C2CC2)C2CC2)cc1N1CCCC1=O` (stereo partly drawn) [Compound 187] reads 100 to 1000 nM. `CC(C(=O)NCC(F)(F)F)c1cc(F)c(NC(=O)[C@@H](NC(=O)c2ccnn2C(C)C)C(C2CC2)C2CC2)cc1N1CCOCC1` (stereo partly drawn) [Compound 188]: the IC50 is below 100 nM. Regarding `CC(=O)NC(C(=O)NCC(F)(F)F)c1ccc(NC(=O)[C@@H](NC(=O)c2ccnn2C(C)C)C(C2CC2)C2CC2)c(F)c1` (stereo partly drawn) [Compound 190], the IC50 was above 1000 nM.

As for `CCC(C(=O)N(C)CC(F)(F)F)c1ccc(NC(=O)[C@@H](NC(=O)c2ccnn2C(C)C)C(C2CC2)C2CC2)c(F)c1` (stereo partly drawn) [Compound 192], the IC50 is below 100 nM. With `CC(C)n1nccc1C(=O)N[C@H](C(=O)Nc1ccc(C(CO)C(=O)NCC(F)(F)F)cc1F)C(C1CC1)C1CC1` (stereo partly drawn) [Compound 193] the figure was above 1000 nM; with `CCOc1cc(NC(=O)[C@@H](NC(=O)c2ccnn2C(C)C)C(C2CC2)C2CC2)c(F)cc1C(C)C(=O)NCC(F)(F)F` (stereo partly drawn) [Compound 194], 100 to 1000 nM. With `CCOc1cc(NC(=O)[C@@H](NC(=O)c2ccnn2C(C)C)C(C2CC2)C2CC2)c(F)cc1C(C)C(=O)N(C)CC(F)(F)F` (stereo partly drawn) [Compound 195] the figure was below 100 nM. With `CNc1cc(NC(=O)[C@@H](NC(=O)c2ccnn2C(C)C)C(C2CC2)C2CC2)c(F)cc1C(C)C(=O)NCC(F)(F)F` (stereo partly drawn) [Compound 196] the figure was above 1000 nM. Take `Cc1cc(NC(=O)[C@@H](NC(=O)c2nonc2C)C2CCC(F)(F)CC2)c(F)cc1C(C)C(=O)NCC(F)(F)F` (stereo partly drawn) [Compound 197]: the IC50 is above 1000 nM. As for `Cc1cc(NC(=O)[C@@H](NC(=O)c2nonc2C)C2CCC(F)(F)CC2)c(F)cc1C(C)C(=O)N(C)CC(F)(F)F` (stereo partly drawn) [Compound 198], the IC50 lay in the range of 100 to 1000 nM. With `CCn1nccc1C(=O)N[C@H](C(=O)Nc1cc(C)c(C(C)C(=O)NCC(F)(F)F)cc1F)[C@H]1CC[C@H](C)CC1` (stereo partly drawn) [Compound 201] the figure was above 1000 nM; with `CCn1nccc1C(=O)N[C@H](C(=O)Nc1cc(C)c(C(C)C(=O)N(C)CC(F)(F)F)cc1F)[C@H]1CC[C@H](C)CC1` (stereo partly drawn) [Compound 202], below 100 nM; with `CC[C@@H](c1ccc(F)cc1)[C@H](NC(=O)c1ccnn1CC)C(=O)Nc1cc(C)c(C(C)C(=O)N(C)CC(F)(F)F)cc1F` (stereo partly drawn) [Compound 203], below 100 nM. On to `CC(C(=O)N1CC(C#N)CCC1C(F)(F)F)c1ccc(NC(=O)[C@@H](NC(=O)c2ccnn2C(C)C)C(C2CC2)C2CC2)c(F)c1` (stereo partly drawn) [Compound 204], for which the IC50 fell in the range of 100 to 1000 nM. The result for `CCc1nonc1C(=O)N[C@H](C(=O)Nc1cc(C)c(C(C)C(=O)N(C)CC(F)(F)F)cc1F)C(C1CC1)C1CC1` (stereo partly drawn) [Compound 205] reads below 100 nM; that for `CCc1nonc1C(=O)N[C@H](C(=O)Nc1cc(C)c(C(C)C(=O)NCC(F)(F)F)cc1F)C(C1CC1)C1CC1` (stereo partly drawn) [Compound 206], 100 to 1000 nM; that for `Cc1cc(NC(=O)[C@@H](NC(=O)c2ccnn2C(C)C)C2CCC(F)(F)CC2)c(F)cc1C(C)C(=O)N(C)CC(F)(F)F` (stereo partly drawn) [Compound 207], below 100 nM. The result for `Cc1cc(NC(=O)[C@@H](NC(=O)c2ccnn2C(C)C)C(C2CC2)C2CC2)c(F)cc1C(C)C(=O)N(C)CC(F)(F)F` (stereo partly drawn) [Compound 208] reads below 100 nM.
